We go through 20 molecules from patent publication US20080019968A1, “DETECTION, PREVENTION AND TREATMENT OF BREAST CANCER” (The scripps Reasearch Institute, priority 2004, published 2008).

For one experiment, the target named is T1, chST6GalNAc-I (Gallus gallus, UniProt Q92183).
T1 construct: made in house; host or cells: insect cells
Description: chST6GalNAc-I activity on small acceptor molecules. Type of experiment: biochemical, chicken. The following applies: α-D-galacto derivatives as acceptors. The text has this:
The inventors have previously reported the cloning, expression, and characterization of chicken ST6GalNAc-I and its use in preparative synthesis of the O-linked sialoside antigens, STn-, α(2-6)SiaT-, α(2-3)SiaT- and Di-SiaT-antigen. Blixt, O.; Allin, K.; Pereira, L.; Datta, A. and Paulson, J. C., J. Am. Chem. Soc. 2002, 124, 5739-5746. Briefly, the recombinant enzyme was expressed in insect cells and purified by CDP-sepharose affinity chromatography to generate approximately 10 U/L of cell culture.

The subject of experiment [1] is antibodies in sera of metastatic breast cancer patients. Description: Glycan array binding of sera of metastatic breast cancer patients. The following applies: sera diluted 1:25; for binding of antibodies from breast cancer patients to glycans: 9 metastatic breast cancer patients, IgG, IgM and IgA detected; for level of serum antibodies against the glycan in MBC patients compared to healthy individuals: 9 MBC patients vs ten healthy individuals. More on the design: species or system human. The procedure: Individual (not pooled) sera were collected from 9 patients who were diagnosed with metastatic breast cancer (MBC). Blood samples were collected before treatment, so that therapeutic intervention would not interfere with patient immune responses. One patient with breast cancer but with good prognosis (IDC, Stage 1) was also included in the study. As control, or “healthy” sera, sera from ten healthy individuals, 5 female and 5 male, with no known malignancies was collected.
Sera were diluted 1:25 with PBS containing 3% BSA, and placed on the glycan array slide in humidified chamber at room temperature for 90 min. The glycan array slide was then rinsed gently with PBS/0.05% Tween, incubated with biotinylated goat antibody against human IgG, IgM and IgA, rinsed in PBS/0.05% Tween, and incubated with streptavidin-Alexa488 fluorescent dye. Following rinses in PBS/0.05% Tween and H2O, glycan array slides were dried and scanned using the commercial DNA array scanner. […] Signal to background was typically greater 50:1 and no background subtractions were performed. Data were plotted using MS Excel software.

The subject of experiment [2] is Human anti-HIV 2G12 monoclonal antibody. In words: Glycan array binding of 2G12. The following applies: 2G12 (30 μg/mL) pre-complexed with goat anti-human-IgG-FITC (15 μg/mL). The text has this:
Glycan array fabrication.
Glycan Binding Protein binding assay.
Image acquisition and signal processing. […] Data were plotted using MS Excel software.

The target in the next experiment is Con A (Canavalia ensiformis, UniProt P02866). The following applies: printing times up to 5 hours.

T1 sequence (Q92183 whole entry): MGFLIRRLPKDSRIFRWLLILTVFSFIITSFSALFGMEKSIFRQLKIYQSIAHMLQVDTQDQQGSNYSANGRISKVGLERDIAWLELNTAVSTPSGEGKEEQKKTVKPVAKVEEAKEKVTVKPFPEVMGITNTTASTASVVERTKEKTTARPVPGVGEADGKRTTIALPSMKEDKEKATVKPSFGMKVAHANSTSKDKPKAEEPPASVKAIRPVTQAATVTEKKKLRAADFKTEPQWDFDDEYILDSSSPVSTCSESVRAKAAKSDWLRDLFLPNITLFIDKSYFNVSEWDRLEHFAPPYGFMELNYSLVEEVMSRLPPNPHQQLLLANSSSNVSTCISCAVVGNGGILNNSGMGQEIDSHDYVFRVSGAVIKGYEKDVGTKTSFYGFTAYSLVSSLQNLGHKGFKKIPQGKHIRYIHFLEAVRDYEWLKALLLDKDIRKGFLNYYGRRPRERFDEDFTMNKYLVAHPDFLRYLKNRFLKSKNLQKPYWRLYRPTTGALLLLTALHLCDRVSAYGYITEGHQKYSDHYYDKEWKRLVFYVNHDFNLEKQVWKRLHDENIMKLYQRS
Description for Con A: Glycan Binding Protein binding assay. Printed slides were analyzed without any further modification of the surface. Slides were incubated in either a one step procedure with labeled proteins, or a sandwich procedure in which the bound glycan binding protein (GBP) was overlaid with labeled secondary antibodies or GBP's pre-complexed with labeled antibodies. GBP's were added at a concentration of 5-50 μg/mL in buffer (usually PBS containing 0.005-0.5% Tween-20). Secondary antibodies (10 μg/mL in PBS) were overlaid on bound GBP. GBP-antibody pre-complexes were prepared in a molar ratio of 1:0.5:0.25 (5-50 μg/mL) for GBP:2° antibody:3° antibody, respectively (15 min on ice). […] Slides were subsequently washed by successive rinses in (i) PBS-Tween (0.05%), (ii) PBS and (iii) de-ionized water, then immediately subjected to imaging.
Image acquisition and signal processing. Fluorescence intensities were detected using a ScanArray 5000 (Perkin Elmer, Boston, Mass.) confocal scanner and image analyses were carried out using ImaGene image analysis software (BioDiscovery Inc, El Segundo, Calif.).
Binding of fluorescein-labeled concanavalin A (con A) was used as a measure of ligand coupling.

As to `CC(=O)N[C@H]1C(O)O[C@H](CO)[C@H](O)[C@@H]1O` (stereo partly drawn) [D-GalNAc], on chST6GalNAc-I, the “chST6GalNAc-I activity, cpm” value was 0 cpm and the “chST6GalNAc-I activity, nmol/mg x min^−1” value is listed as 0.00 nmol/mg x min^−1. On to (Ab4GNb)3#sp1 Tri-LacNAc [glycan 9], for which the “binding of antibodies from breast cancer patients to glycans” value (from here on “binding of antibodies”) in experiment [1] was “will also bind”. Take Ab3ANb4[NNa3]Ab4Gb#sp1 GM1 [glycan 58]: in experiment [1], the “level of serum antibodies against the glycan in MBC patients compared to healthy individuals” value (“level … compared to healthy individuals” below) is reported as “higher than in the healthy individuals” and the “binding of antibodies” value is “bind”. As to “Ab4GNb3Ab4GNb#sp1 LacNAc-LacNAc [glycan 76]”, the “binding of antibodies” value in experiment [1] is “will also bind”.

Take “Ab4GNb3Ab4[Fa3]GNb3Ab4[Fa3]GNb#sp1 LacNAc-LeX-LeX [glycan 73]”: the “binding of antibodies” value in experiment [1] is recorded as “will also bind”.

Consider “Fa2Ab3Anb3Aa4Ab4G#sp3 Globo-H [glycan 97]”, for which, in experiment [1], the “level … compared to healthy individuals” value is on record as “higher than in the healthy individuals” and the “binding of antibodies” value is “bind”. For “Fa2Ab4GNb3Ab4GNb3Ab4GNb#sp1 H-type2-LacNAc-LacNAc [glycan 107]”, the “binding of antibodies” value in experiment [1] is on record as “will also bind”.

In the case of “Fa2Ab4GNb3Ab4GNb#sp1 H-type-2-LacNAc [glycan 106]”, in experiment [1], the “binding of antibodies” value was “will also bind”.

Turning to “GNb3Ab4GNb#sp1 GlcNAcβ3LacNAc [glycan 124]”, the “binding of antibodies” value in experiment [1] is recorded as “will also bind”. Take GNb3Ab4Gb#sp1 LNT-2 [glycan 123]: in experiment [1], the “level … compared to healthy individuals” value is “higher than in the healthy individuals” and the “binding of antibodies” value is recorded as “bind”.

Regarding Ma2Ma3[Ma2Ma6]Ma#sp3 [glycan 136], the “binding of 2G12 to glycans on the array” value in experiment [2] is recorded as “strong binding”. The “Rel. spec. (relative binding activity of 2G12)” value in experiment [2] (mannose containing glycans on the array) is listed as “+++ (+++ >25,000)”. Further, on Con A, the “variation in maximal binding of con A” value is recorded as “less than 10%”. For Man-9#aa Man9-aminoacid [glycan 145], the “binding of 2G12 to glycans on the array” value in experiment [2] was “smaller level of binding”. In the case of “NJa6ANa#sp2 Neu5Gc6GalNAc (STn) [glycan 155]”, the “binding of antibodies” value in experiment [1] is “bind”. Take “NNa3Ab4GNb3Ab4GNb3Ab4GNb#sp1 3′Sialyl-tri-LacNAc [glycan 180]”: the “binding of antibodies” value in experiment [1] is “will also bind”. In the case of “NNa3Ab4GNb3Ab4GNb#sp1 3′SialylDiLacNAc [glycan 179]”, in experiment [1], the “binding of antibodies” value is “will also bind”. Regarding “NNa3Ab4[Fa3]GNb3Ab4GNb#sp1 SLeXLacNAc [glycan 174]”, the “binding of antibodies” value in experiment [1] is “will also bind”. NNa6ANa#sp2 6SiaβGalNAc [glycan 190]: in experiment [1], the “level … compared to healthy individuals” value is recorded as “significantly higher levels” and the “binding of antibodies” value is listed as “bind”. Consider “NNa6Ab4GNb3Ab4GNb#sp1 6SiaLacNAc-LacNAc [glycan 189]”, for which, in experiment [1], the “binding of antibodies” value is recorded as “will also bind”. Take “NNa6Ab4GNb3Ab4[Fa3]GNb3Ab4[Fa3]GNb#sp1 6Sia-LacNAc-LeX-LeX [glycan 188]”: in experiment [1], the “binding of antibodies” value was “will also bind”.

B1: Ceruloplasmine (protein, UniProt P00450 20-1065, looked up)
Ceruloplasmin: KEKHYYIGIIETTWDYASDHGEKKLISVDTEHSNIYLQNGPDRIGRLYKKALYLQYTDETFRTTIEKPVWLGFLGPIIKAETGDKVYVHLKNLASRPYTFHSHGITYYKEHEGAIYPDNTTDFQRADDKVYPGEQYTYMLLATEEQSPGEGDGNCVTRIYHSHIDAPKDIASGLIGPLIICKKDSLDKEKEKHIDREFVVMFSVVDENFSWYLEDNIKTYCSEPEKVDKDNEDFQESNRMYSVNGYTFGSLPGLSMCAEDRVKWYLFGMGNEVDVHAAFFHGQALTNKNYRIDTINLFPATLFDAYMVAQNPGEWMLSCQNLNHLKAGLQAFFQVQECNKSSSKDNIRGKHVRHYYIAAEEIIWNYAPSGIDIFTKENLTAPGSDSAVFFEQGTTRIGGSYKKLVYREYTDASFTNRKERGPEEEHLGILGPVIWAEVGDTIRVTFHNKGAYPLSIEPIGVRFNKNNEGTYYSPNYNPQSRSVPPSASHVAPTETFTYEWTVPKEVGPTNADPVCLAKMYYSAVEPTKDIFTGLIGPMKICKKGSLHANGRQKDVDKEFYLFPTVFDENESLLLEDNIRMFTTAPDQVDKEDEDFQESNKMHSMNGFMYGNQPGLTMCKGDSVVWYLFSAGNEADVHGIYFSGNTYLWRGERRDTANLFPQTSLTLHMWPDTEGTFNVECLTTDHYTGGMKQKYTVNQCRRQSEDSTFYLGERTYYIAAVEVEWDYSPQREWEKELHHLQEQNVSNAFLDKGEFYIGSKYKKVVYRQYTDSTFRVPVERKAEEEHLGILGPQLHADVGDKVKIIFKNMATRPYSIHAHGVQTESSTVTPTLPGETLTYVWKIPERSGAGTEDSACIPWAYYSTVDQVKDLYSGLIGPLIVCRRPYLKVFNPRRKLEFALLFLVFDENESWYLDDNIKTYSDHPEKVNKDDEEFIESNKMHAINGRMFGNLQGLTMHVGDEVNWYLMGMGNEIDLHTVHFHGHSFQYKHRGVYSSDVFDIFPGTYQTLEMFPRTPGIWLLHCHVTDHIHAGMETTYTVLQNEDTKSG
Consider B1, for which, in experiment [1], the “level … compared to healthy individuals” value is listed as “significantly higher levels” and the “binding of antibodies” value was “bind”.
